Reference: publication PMC2680649 (International Journal of Molecular Sciences, 2009)
Read-outs that look alike come from different tables or passages of the source.

Key:
hER-β = target: T1, hER-β (Homo sapiens, UniProt Q92731); test: cell-based; conditions: read-out: EC50, half-maximal luciferase activity, transcriptional activation through ER β
T1 construct: expressed in transfected cells; host or cells: HELN (HeLa carrying a stably transfected estrogen-responsive luciferase reporter)

human ERβ = test system: human ERβ; parameters: method as in PMID 9751507; conditions: cells transfected with human ERβ; cited from earlier work
hER-α = target: T2, hER-α (Homo sapiens, UniProt P03372); test: cell-based; format: cell-based
T2 construct: expressed in transfected cells; host or cells: HELN (HeLa carrying a stably transfected estrogen-responsive luciferase reporter)
T2 sequence (P03372 whole entry): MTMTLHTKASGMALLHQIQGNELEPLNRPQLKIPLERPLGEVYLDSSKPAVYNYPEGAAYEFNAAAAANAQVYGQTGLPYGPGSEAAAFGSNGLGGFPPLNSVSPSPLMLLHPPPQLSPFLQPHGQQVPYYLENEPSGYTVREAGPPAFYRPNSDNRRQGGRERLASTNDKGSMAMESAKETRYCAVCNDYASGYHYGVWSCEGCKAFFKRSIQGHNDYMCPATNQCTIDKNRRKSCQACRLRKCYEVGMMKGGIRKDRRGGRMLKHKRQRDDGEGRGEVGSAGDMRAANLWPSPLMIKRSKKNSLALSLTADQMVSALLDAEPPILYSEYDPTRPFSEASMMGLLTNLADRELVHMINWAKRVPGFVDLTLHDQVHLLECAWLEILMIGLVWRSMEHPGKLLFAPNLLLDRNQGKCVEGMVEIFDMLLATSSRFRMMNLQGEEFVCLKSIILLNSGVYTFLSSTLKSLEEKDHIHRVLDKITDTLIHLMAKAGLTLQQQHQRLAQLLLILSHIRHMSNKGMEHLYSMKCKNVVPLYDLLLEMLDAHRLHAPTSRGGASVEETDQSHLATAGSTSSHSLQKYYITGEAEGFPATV

human ERα = test system: human ERα; parameters: method as in PMID 9751507; conditions: cells transfected with human ERα; cited from earlier work
cytochrome P450 = format: in vitro ADME, rat
[1] = In vitro metabolism of zearalenone, rat liver microsomal preparation; format: in vitro ADME, rat (Sprague Dawley); conditions: Rat (untreated) liver microsomes, 1 μM total P450, 50 μM ZEN, NADPH-generating system, pH 7.4, 30 min; n = 4
Text: (§1) Monkeys (Cynomolgus, Macaca fascicularis), pig (Yucatan), dog (Beagle), rabbit (New Zealand), mouse (CD-1) and rat (Sprague Dawley) liver microsomes, rat 2C Supersomes® were purchased from Gentest (BD Biosciences, NJ, USA). Pools of human livers for female or male were purchased from Xenotech (Tebu-Bio, Le Perray en Yvelines, France). Human CYP Bactosomes® were provided by Cypex (Tebu-Bio, Le Perray en Yvelines, France).

[2] = In vitro metabolism of zearalenone, mouse liver microsomal preparation; format: in vitro ADME, mouse (CD-1); conditions: Mouse liver microsomes, 1 μM total P450, 50 μM ZEN, NADPH-generating system, pH 7.4, 30 min; n = 4
Text: as §1

[3] = In vitro metabolism of zearalenone, human male liver microsomal preparation; format: in vitro ADME; conditions: Human Male liver microsomes, 1 μM total P450, 50 μM ZEN, NADPH-generating system, pH 7.4, 30 min; n = 4
Text: as §1

[4] = ZEN incubation with rat liver cytosolic fraction; conditions: rat liver cytosol, presence of NADPH
[5] = In vitro metabolism of zearalenone, Cynomolgus monkey liver microsomal preparation; format: in vitro ADME, Macaca fascicularis; conditions: Cynomolgus monkey liver microsomes, 1 μM total P450, 50 μM ZEN, NADPH-generating system, pH 7.4, 30 min; n = 4
Text: as §1

[6] = In vitro metabolism of zearalenone, dog liver microsomal preparation; format: in vitro ADME, dog (Beagle); conditions: Dog liver microsomes, 1 μM total P450, 50 μM ZEN, NADPH-generating system, pH 7.4, 30 min; n = 4
Text: as §1

[7] = In vitro metabolism of zearalenone, pig liver microsomal preparation; format: in vitro ADME, pig (Yucatan); conditions: Pig liver microsomes, 1 μM total P450, 50 μM ZEN, NADPH-generating system, pH 7.4, 30 min; n = 4
Text: as §1

[8] = In vitro metabolism of zearalenone, human female liver microsomal preparation; format: in vitro ADME; conditions: Human Female liver microsomes, 1 μM total P450, 50 μM ZEN, NADPH-generating system, pH 7.4, 30 min; n = 4
Text: as §1

[9] = In vitro metabolism of zearalenone, rabbit liver microsomal preparation; format: in vitro ADME, rabbit (New Zealand); conditions: Rabbit liver microsomes, 1 μM total P450, 50 μM ZEN, NADPH-generating system, pH 7.4, 30 min; n = 4
Text: as §1

[10] = ZEN incubation with rat liver post-mitochondrial fraction (S9)
[11] = In vitro metabolism of zearalenone, PB-treated rat liver microsomal preparation; conditions: PB-treated rat liver microsomes, 1 μM total P450, 50 μM ZEN, NADPH-generating system, pH 7.4, 30 min; n = 4

T1 sequence (Q92731 whole entry): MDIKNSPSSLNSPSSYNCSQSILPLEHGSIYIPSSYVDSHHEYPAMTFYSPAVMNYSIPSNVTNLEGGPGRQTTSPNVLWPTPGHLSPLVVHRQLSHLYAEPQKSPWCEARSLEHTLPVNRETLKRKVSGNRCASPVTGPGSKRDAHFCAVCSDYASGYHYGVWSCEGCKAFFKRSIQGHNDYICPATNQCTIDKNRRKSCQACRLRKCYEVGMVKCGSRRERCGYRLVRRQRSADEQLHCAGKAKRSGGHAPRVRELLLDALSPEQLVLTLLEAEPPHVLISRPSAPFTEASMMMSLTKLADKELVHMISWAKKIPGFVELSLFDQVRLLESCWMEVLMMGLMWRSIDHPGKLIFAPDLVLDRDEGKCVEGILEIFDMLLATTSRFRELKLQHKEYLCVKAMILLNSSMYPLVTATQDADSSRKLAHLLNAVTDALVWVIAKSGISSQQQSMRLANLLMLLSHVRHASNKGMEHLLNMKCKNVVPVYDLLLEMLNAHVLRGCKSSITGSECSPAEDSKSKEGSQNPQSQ

With `C[C@H]1CCCC(=O)CCC/C=C/c2cc(O)cc(O)c2C(=O)O1` [ZEN, (3S,11E)-3,4,5,6,9,10-Hexahydro-14,16-dihydroxy-3-methyl-1H-2-benzoxacyclotetradecin-1,7(8H)-dione] as the compound, how does the EC50 (hER-β) read?
The EC50 was 11.5 ± 2.5 nM.

What about the “agonist character for ERβ” value (human ERβ) of the same compound?
The value was “partial agonist”.

What about the EC50 (hER-α) of the same compound?
Its EC50 is 11.8 ± 1.9 nM.

And the “agonist character for ERα” value (human ERα)?
The value was “full agonist”.

Which “effect on formation of OH-ZEN” value (cytochrome P450; carbon monoxide) does the source give for `[C-]#[O+]` [carbon monoxide] here?
Its value is “inhibited”.

With `CC(=O)N1CCN(c2ccc(OCC3COC(Cn4ccnc4)(c4ccc(Cl)cc4Cl)O3)cc2)CC1` (stereo not shown) [ketoconazole] as the compound, how does the “effect on formation of OH-ZEN” value (cytochrome P450) read?
Its value is “inhibited”.

Which results are given for `C[C@H]1CCC[C@H](O)CCC/C=C/c2cc(O)cc(O)c2C(=O)O1` [α-ZOL, α-zearalenol]?
formation rate of ZEN metabolite [1]: 14.7 ± 2.5 nmoles/30 min/nmole P450; formation rate of ZEN metabolite [2]: 41.3 ± 11.5 nmoles/30 min/nmole P450; formation rate of ZEN metabolite [3]: 3.6 ± 0.3 nmoles/30 min/nmole P450; metabolite formed in cytosolic fraction [4]: formed; formation rate of ZEN metabolite [5]: 4.0 ± 0.4 nmoles/30 min/nmole P450; formation rate of ZEN metabolite [6]: 2.8 ± 0.3 nmoles/30 min/nmole P450; formation rate of ZEN metabolite [7]: 7.4 ± 0.6 nmoles/30 min/nmole P450; formation rate of ZEN metabolite [8]: 3.3 ± 0.5 nmoles/30 min/nmole P450; formation rate of ZEN metabolite [9]: 2.5 ± 0.4 nmoles/30 min/nmole P450

Which EC50 (hER-α; read-out: EC50, half-maximal luciferase activity, transcriptional activation through ER α, HELN ER-α cells, 16 h at 37 °C, maximal activity with 10 nM E2) does the source give for `C[C@H]1CCC[C@H](O)CCCCCc2cc(O)cc(O)c2C(=O)O1` [α–ZAL, α-zearalanol] here?
Its EC50 is 0.49 ± 0.9 nM.

For β-zearalenol [β-ZOL], which “metabolite found in post-mitochondrial incubation (fraction S9)” value [10] is on record?
Its value is “in association with β-ZOL”.

What about the “formation rate of ZEN metabolite” value [11] of the same compound?
The value was 3.3 ± 0.4 nmoles/30 min/nmole P450.

What about the “metabolite formed in cytosolic fraction” value [4] of the same compound?
Its value is “formed”.

And the “formation rate of ZEN metabolite” value [7]?
Its value is 10.0 ± 1.8 nmoles/30 min/nmole P450.

And the “formation rate of ZEN metabolite” value [8]?
The value was 0.3 ± 0.1 nmoles/30 min/nmole P450.

What about the “formation rate of ZEN metabolite” value [9] of the same compound?
The value was 1.9 ± 0.4 nmoles/30 min/nmole P450.
